Laboratory results published in US4735963A, “Anti-platelet aggregating 1,3-oxathiane derivatives, compositions, and method of use therefor” (Imperial Chemical Industries PLC, priority 1985, dated 1988).

Tested on: TXA2
Assay: rabbit aortal strip model, test (a)
Format: cell-based
Details: agonist TXA2 or U46619
Protocol: (a) The rabbit aortal strip model devised by Piper and Vane (Nature, 1969, 223, 29-35) using as agonist a freshly prepared sample of TXA2, generated by addition of arachidonic acid (25 μg) to citrated, platelet rich rabbit plasma (250 μl) and allowing the mixture to aggregate fully over 90 seconds before use; alternatively the TXA2 mimetic agent known as U46619 (described by R L Jones et alia, in "Chemistry, Biochemistry and Pharmacological Activity of Prostanoids" edited by S M Roberts and F Scheinmann, at page 211, Pergamon Press, 1979) may be used as the agonist;

## CC1(C)O[C@@H](c2ccccc2O)[C@@H](C/C=C\CCCC(=O)O)CS1 (relative stereo) [Example 1, 5(Z)-7-(6-o-hydroxyphenyl-2,2-dimethyl-1,3-oxathian-cis-5-yl)heptenoic acid]
  pA2 in test (a): 7.42
